From patent US5449661A, “Angiotensin converting enzyme inhibitor and method for preparing same” (The Calpis Food Industry Co., Ltd., priority 1992, dated 1995)
Residues, ends and D or L forms follow the SMILES beside them.

target: T1, angiotensin converting enzyme (ACE) (Oryctolagus cuniculus, UniProt P12822); experiment: ACE inhibiting activity (method of Cushman and Cheung, Hip-His-Leu substrate); details: read-out: IC50 (μM), ACE inhibiting activity of synthesized peptides; chemically synthesized peptides; measured in the same way as in Example 1
T1 sequence (P12822 34-1310): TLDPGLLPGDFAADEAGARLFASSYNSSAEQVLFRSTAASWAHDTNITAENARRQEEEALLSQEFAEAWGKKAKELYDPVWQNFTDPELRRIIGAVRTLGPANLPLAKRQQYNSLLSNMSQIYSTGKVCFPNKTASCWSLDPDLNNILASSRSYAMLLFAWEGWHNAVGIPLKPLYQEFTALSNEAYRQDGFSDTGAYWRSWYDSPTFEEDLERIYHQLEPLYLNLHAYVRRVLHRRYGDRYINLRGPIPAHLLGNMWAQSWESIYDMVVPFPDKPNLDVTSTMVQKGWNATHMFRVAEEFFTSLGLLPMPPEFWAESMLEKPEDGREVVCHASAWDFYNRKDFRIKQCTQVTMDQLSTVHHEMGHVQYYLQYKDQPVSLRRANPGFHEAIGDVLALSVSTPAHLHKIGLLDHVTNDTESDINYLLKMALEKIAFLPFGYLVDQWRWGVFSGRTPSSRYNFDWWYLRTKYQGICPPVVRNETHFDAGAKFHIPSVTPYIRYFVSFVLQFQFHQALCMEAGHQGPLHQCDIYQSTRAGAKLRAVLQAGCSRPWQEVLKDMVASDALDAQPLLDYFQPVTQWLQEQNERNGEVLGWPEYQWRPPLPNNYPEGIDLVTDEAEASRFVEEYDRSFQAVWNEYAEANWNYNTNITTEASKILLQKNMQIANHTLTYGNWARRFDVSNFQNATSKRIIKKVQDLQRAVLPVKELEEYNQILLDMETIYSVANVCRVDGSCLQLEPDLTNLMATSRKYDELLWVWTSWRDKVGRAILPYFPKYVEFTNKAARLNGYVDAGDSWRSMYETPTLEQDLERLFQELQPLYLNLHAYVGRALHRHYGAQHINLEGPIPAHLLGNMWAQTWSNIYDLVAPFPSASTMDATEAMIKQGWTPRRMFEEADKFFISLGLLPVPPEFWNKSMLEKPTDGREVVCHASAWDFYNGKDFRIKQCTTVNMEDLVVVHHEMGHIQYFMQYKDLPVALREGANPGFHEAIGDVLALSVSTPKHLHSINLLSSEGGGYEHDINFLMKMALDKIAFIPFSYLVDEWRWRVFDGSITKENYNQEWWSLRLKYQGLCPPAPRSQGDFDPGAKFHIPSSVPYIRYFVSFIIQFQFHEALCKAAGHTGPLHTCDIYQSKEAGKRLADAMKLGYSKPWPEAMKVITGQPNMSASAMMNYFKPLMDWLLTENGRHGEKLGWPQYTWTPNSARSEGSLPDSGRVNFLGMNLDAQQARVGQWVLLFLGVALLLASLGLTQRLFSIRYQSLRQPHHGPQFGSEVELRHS
Method: 0.2 ml of hippuryl histidyl leucine (Hip-His-Leu, manufactured by SIGMA CHEMICAL CO.), adjusted to 5 mM with a 0.1M boric acid buffer containing 0.3M NaCl, pH 8.3, and 0.02 ml of an aqueous enzyme solution (ACE, 0.1 u/ml, manufactured by SIGMA CHEMICAL CO.) were added in this order as a substrate to the contents of each test tube, and reaction was carried out at 37° C. for 30 minutes. 0.25 ml of 1N hydrochloric acid was subsequently added to the contents of each test tube. After termination of the reaction, 1.7 ml of ethyl acetate was added to the contents of each tube, and agitation was continued for 20 seconds. After centrifugal separation at 3000 rpm for 10 minutes, and recovery of 1.4 ml of an ethyl acetate layer, the solvent was removed by heating at 120° for 40 minutes. After removing the solvent and adding 1 ml of distilled water, the absorption at 228 nm of the extracted hippuric acid was measured and adopted as the ACE inhibiting activity. The inhibiting ratio was calculated by the following equation:
Inhibiting Percentage=[(A-B)/(A-C)]×100(%)

Structure (SMILES) | IC50 [µM]
CC(C)C[C@H](N)C(=O)N[C@H](C(=O)N[C@@H](CCC(N)=O)C(=O)N[C@H](C(=O)N1CCC[C@H]1C(=O)N[C@H](C(=O)N[C@H](C(=O)N[C@H](C(=O)N1CCC[C@H]1C(=O)N1CCC[C@H]1C(=O)O)C(C)C)C(C)C)C(C)C)[C@@H](C)O)[C@@H](C)O (H-LTQTPVVVPP-OH) | 160
CC(C)[C@H](NC(=O)[C@@H]1CCCN1C(=O)[C@H](C)N)C(=O)N1CCC[C@H]1C(=O)N1CCC[C@H]1C(=O)O [Ala--Pro--Val--Pro--Pro, Ala-Pro-Val-Pro-Pro] (H-APVPP-OH) | 627
CC(C)[C@H](NC(=O)[C@@H]1CCCN1)C(=O)N1CCC[C@H]1C(=O)N1CCC[C@H]1C(=O)O [Pro--Val--Pro--Pro, Pro-Val-Pro-Pro] (H-PVPP-OH) | 181
CC(C)[C@H](N)C(=O)N[C@H](C(=O)N1CCC[C@H]1C(=O)N1CCC[C@H]1C(=O)O)C(C)C [Val--Val--Pro--Pro, Val-Val-Pro-Pro] (H-VVPP-OH) | 285
CC(C)[C@H](N)C(=O)N[C@H](C(=O)N[C@H](C(=O)N1CCC[C@H]1C(=O)N1CCC[C@H]1C(=O)O)C(C)C)C(C)C [Val--Val--Val--Pro--Pro, Val-Val-Val-Pro-Pro] (H-VVVPP-OH) | 873

Stronger by IC50, values ahead:

IC50 [µM] | Structure (SMILES)
125 | CC(C)C[C@H](N)C(=O)N[C@H](C(=O)N1CCC[C@H]1C(=O)N1CCC[C@H]1C(=O)O)C(C)C [Leu--Val--Pro--Pro, Leu-Val-Pro-Pro] (H-LVPP-OH)
117 | CC(C)[C@H](NC(=O)[C@@H]1CCCN1)C(=O)N[C@H](C(=O)N[C@H](C(=O)N1CCC[C@H]1C(=O)N1CCC[C@H]1C(=O)O)C(C)C)C(C)C [Pro--Val--Val--Val--Pro--Pro, Pro-Val-Val-Val-Pro-Pro] (H-PVVVPP-OH)
12 | CC(C)C[C@H](NC(=O)[C@@H](N)Cc1ccccc1)C(=O)N[C@H](C(=O)N1CCC[C@H]1C(=O)N1CCC[C@H]1C(=O)O)C(C)C [Phe--Leu--Val--Pro--Pro, Phe-Leu-Val-Pro-Pro] (H-FLVPP-OH)
